Data on 31 compounds can be found in patent US20140349989A1, “COMPOUNDS AND THERAPEUTIC USES THEREOF” (Alzheimer's Institute of America, priority 2011, published 2014).

Like-named read-outs stand apart in the source and are kept apart here. Where only a bound is given, the exact number is not on record here.

A short description of the data set: Cytotoxicity Assay (HCT116, CellTiter-Glo). It is filed as cell-based. Conditions: human. How it is done:
HCT116 cells were seeded in 96 well plates (Greiner Bio-One, Monroe, N.C.) and allowed to settle overnight. Test compound dissolved in dimethyl sulfoxide (DMSO) was added and drug incubation proceeded for 72 hours. When applicable, a 1000× solution of nicotinic acid (NA; Sigma-Aldrich, St. Louis, Mo.) dissolved in water was generated, and 1×NA (10 μM final concentration) was added at the same time as the test compound. After 72 hour, 50 μL of CellTiter-Glo Luminescent Cell Viability Assay reagent (Promega Corporation, Madison, Wis.) was added to cells in 200 μL of cellular media. After a proscribed incubation period, luminescence was measured using a TopCount NXT plate reader (PerkinElmer, Waltham, Mass.).
For orientation: In ATP-based viability assays light output follows the ATP content of the culture.

Setting [1] is: HCT116 cells, 72 hours drug incubation, CellTiter-Glo luminescence, read-out: HCT116 cell cytotoxicity IC50.

Usually IC50 stands for the concentration that gives 50% inhibition. For the compound `C[C@@H]1CN(CCc2cn(-c3ccc(NC(=O)NCc4cccnc4)cc3)c3ccccc23)C[C@H](C)O1` [Compound 53, 1-[4-(3-{2-[(2R,6S)-2,6-Dimethyl-morpholin-4-yl]ethyl}-1H-indol-1-yl)phenyl]-3-(pyridin-3-ylmethyl)urea], the IC50 at 72 h under setting [1] was below 0.1 µM.
With `CN1CCC(c2cn(-c3ccc(NC(=O)NCc4cccnc4)cc3)c3ccccc23)CC1` [Compound 111, 1-{4-[3-(1-Methylpiperidin-4-yl)-1H-indol-1-yl]phenyl}-3-(pyridin-3-ylmethyl)urea], under setting [1], the IC50 at 72 h is below 0.1 µM.
In the case of `Cc1c(C(=O)N2CCC(O)CC2)c2ccccc2n1-c1ccc(NC(=O)NCc2cccnc2)cc1` [Compound 108, 1-(4-{3-[(4-Hydroxypiperidin-1-yl)carbonyl]-2-methyl-1H-indol-1-yl}phenyl)-3-(pyridin-3-yl-methyl)urea], the IC50 at 72 h under setting [1] was below 0.1 µM.
The same measure, in the same setting: with `O=C(NCc1cccnc1)Nc1ccc(-n2cc(CCN3CCC(F)(F)C3)c3ccccc32)cc1` [Compound 69, 1-(4-{3-[2-(3,3-Difluoropyrrolidin-1-yl)ethyl]-1H-indol-1-yl}phenyl)-3-(pyridin-3-ylmethyl) urea] the figure was below 0.1 µM; with `O=C(/C=C/c1ccc(-n2nc(C(=O)N3CCC(N4CCOCC4)CC3)c3ccccc32)cc1)NCc1cccnc1` [Compound 171, (2E)-3-[4-(3-{[4-(Morpholin-4-yl)piperidin-1-yl]carbonyl}-1H-indazol-1-yl)phenyl]-N-(pyridin-3-ylmethyl)prop-2-enamide], below 0.1 µM; with `O=C(NCc1cccnc1)Nc1ccc(N2CC3(CCN(C(=O)OCc4ccccc4)CC3)c3ccccc32)cc1` [Compound 66, Benzyl 1-(4-{[(pyridin-3-ylmethyl)carbamoyl]ami-no}phenyl)-1,2-dihydro-1′H-spiro[indole-3,4′-piperidine]-1′-carboxyylate], below 0.1 µM.
Compound `O=C(/C=C/c1ccc(-n2nc(C(=O)N3CCC(N4CCCCC4)CC3)c3ccccc32)cc1)NCc1cccnc1` [Compound 177, (2E)-3-{4-[3-(1,4′-Bipiperidin-1′-ylcarbonyl)-1H-indazol-1-yl]phenyl}-N-(pyridin-3-ylmethyl)prop-2-enamide] gave a 50% inhibitory concentration (IC50) at 72 h (HCT116 cell cytotoxicity IC50) below 0.1 µM.
Still for that read-out and setting: with `Cc1c(-c2ccccc2)c(C(=O)NCCCN2CCCCC2)nn1-c1ccc(NC(=O)NCc2cccnc2)cc1` [Compound 50, 5-Methyl-4-phenyl-N-[3-(piperidin-1-yl)propyl]-1-(4-{[(pyridin-3-ylmethyl)carbamoyl]ami-no}phenyl)-1H-pyrazole-3-carboxamide] the figure was below 0.1 µM.
As for `O=C(NCCCCCn1cc(C(=O)N2CCN(C3CCCCC3)CC2)c2ccccc21)NCc1cncs1` [Compound 124, 1-(5-{3-[(4-Cyclohexyl-piperazin-1-yl)carbonyl]-1H-indol-1-yl}pentyl)-3-(1,3-thiazol-5-ylmethyl) urea], the IC50 at 72 h under setting [1] was below 0.1 µM.
Take `O=C(NCc1cccnc1)Nc1ccc(-n2cc(CCN3CCCCC3)c3ccccc32)cc1` [Compound 49, 1-(4-{3-[2-(Piperidin-1-yl)ethyl]-1H-indol-1-yl}phenyl)-3-(pyridin-3-ylmethyl)urea]: the IC50 at 72 h (HCT116 cell cytotoxicity IC50) was below 0.1 µM.
Take `O=C(NCc1cccnc1)Nc1ccc(-n2cc(C3CCN(CCF)CC3)c3ccccc32)cc1` [Compound 99, 1-(4-{3-[1-(2-Fluoroethyl)piperidin-4-yl]-1H-indol-1-yl}phenyl)-3-(pyridin-3-ylmethyl)urea]: the IC50 at 72 h under setting [1] was below 0.1 µM.
On to `O=C(NCc1cccnc1)Nc1ccc(-n2nc(C#CCN3CCOCC3)c3ccccc32)cc1` [Compound 42, 1-(4-{3-[3-(Morpholin-4-yl)prop-1-yn-1-yl]-1H-indazol-1-yl}phenyl)-3-(pyridin-3-ylmethyl)urea], for which the IC50 at 72 h (HCT116 cell cytotoxicity IC50) was below 0.1 µM.
As to `O=C(NCCCn1cc(C(=O)NCCCN2CCCC2)c2ccccc21)NCc1cccnc1` [Compound 59, 1-(3-{[(Pyridin-3-ylmethyl)carbamoyl]amino}propyl)-N-[3-(pyrrolidin-1-yl)propyl]-1H-indole-3-carboxamide], the IC50 at 72 h under setting [1] is at least 0.1 µM.
For the compound `CCOC(=O)c1cn(CCCNC(=O)NCc2cccnc2)c2ccccc12` [Compound 106, Ethyl 1-(3-{[(pyridin-3-ylmethyl)carbamoyl]ami-no}propyl)-1H-indole-3-carboxylate], the IC50 at 72 h under setting [1] was at least 0.1 µM.
In the case of `O=C(NCc1cccnc1)Nc1ccc(-n2nc(N3CCC(CN4CCOCC4)CC3)c3ccccc32)cc1` [Compound 62, 1-(4-{3-[4-(Morpholin-4-ylmethyl)piperidin-1-yl]-1H-indazol-1-yl}phenyl)-3-(pyridin-3-ylmethyl)urea], the IC50 at 72 h (HCT116 cell cytotoxicity IC50) is below 0.1 µM.
Where the note is “HCT116 cell cytotoxicity IC50”, `O=C(NCc1cccnc1)Nc1ccc(-n2cc(C3CCN(CCO)CC3)c3ccccc32)cc1` [Compound 129, 1-(4-{3-[1-(2-Hydroxy-ethyl)piperidin-4-yl]-1H-indol-1-yl}phenyl)-3-(pyridin-3-ylmethyl)urea] returned an IC50 at 72 h of at least 0.1 µM.
On to `CC(C)(C)OC(=O)N1CCC(CCn2ccnc2-c2cn(-c3ccc(NC(=O)NCc4cccnc4)cc3)c3ccccc23)CC1` [Compound 87, tert-Butyl 4-(2-{2-[1-(4-{[(pyridin-3-yl-methyl)carbamoyl]amino}phenyl)-1H-indol-3-yl]-1H-imidazol-1-yl}ethyl)piperidine-1-carboxylate], for which, under setting [1], the IC50 at 72 h is below 0.1 µM.
In the case of `CN1CCN(C2CCN(C(=O)c3cn(CCCNC(=O)NCc4cccnc4)c4ccccc34)CC2)CC1` [Compound 125, 1-[3-(3-{[4-(4-Methylpiperazin-1-yl)piperidin-1-yl]carbonyl}-1H-indol-1-yl)propyl]-3-(pyridin-3-ylmethyl)urea], the IC50 at 72 h under setting [1] is below 0.1 µM.
Still for that read-out and setting: with `O=C(NCc1cccnc1)Nc1ccc(-c2nn(C3CNC3)c3ccccc23)cc1` [Compound 91, 1-{4-[1-(Azetidin-3-yl)-1H-indazol-3-yl]phenyl}-3-(pyridin-3-ylmethyl) urea] the figure was below 0.1 µM; with `COc1cccc(-c2cn(-c3ccc(NC(=O)NCc4cccnc4)cc3)nc2C(=O)N2CCC(N3CCCCC3)CC2)c1` [Compound 85, 1-{4-[3-(1,4′-Bipiperidin-1′-ylcarbonyl)-4-(3-methoxyphenyl)-1H-pyrazol-1-yl]phenyl}-3-(pyridin-3-ylmethyl)urea], below 0.1 µM.
In the case of `O=C(NCc1cccnc1)Nc1ccc(-n2cc(-c3ccccc3OCCCN3CCOCC3)cn2)cc1` [Compound 30, 1-[4-(4-{2-[3-(Morpholin-4-yl)propoxy]phenyl}-1H-pyrazol-1-yl)phenyl]-3-(pyridin-3-ylmethyl)urea], the IC50 at 72 h under setting [1] is below 0.1 µM.
As for `O=C(NCc1cccnc1)Nc1ccc(-n2c(Cl)c(C(=O)N3CCN(C4CCCCC4)CC3)c3ccccc32)cc1` [Compound 70, 1-(4-{2-Chloro-3-[(4-cyclohexyl-piperazin-1-yl)carbonyl]-1H-indol-1-yl}phenyl)-3-(pyridin-3-ylmethyl)urea], the IC50 at 72 h under setting [1] was below 0.1 µM.
On the same count and under the same terms, the result for `O=C(NCc1cccnc1)N[C@H]1CC[C@H](n2cc(C(=O)N3CCN(C4CCCCC4)CC3)c3ccccc32)CC1` [Compound 37, 1-(trans-4-{3-[(4-Cyclohexyl-piperazin-1-yl)carbonyl]-1H-indol-1-yl}cyclohexyl)-3-(pyridin-3-ylmethyl)urea] reads below 0.1 µM; that for `O=C(NCc1cccnc1)Nc1ccc(-n2nc(CC(=O)N3CCCCC3)c3ccccc32)cc1` [Compound 84, 1-(4-{3-[2-Oxo-2-(piperidin-1-yl)ethyl]-1H-indazol-1-yl}phenyl)-3-(pyridin-3-ylmethyl)urea], below 0.1 µM.
Under “HCT116 cell cytotoxicity IC50”, `O=C(NCc1cccnc1)Nc1ccc(-n2nc(C(=O)N3CCC(N4CCCC4)CC3)cc2C2CC2)cc1` [Compound 74, 1-[4-(5-Cyclopropyl-3-{[4-(pyrrolidin-1-yl)piperidin-1-yl]carbonyl}-1H-pyrazol-1-yl)phenyl]-3-(pyridin-3-ylmethyl)urea] returned an IC50 at 72 h of at least 0.1 µM.
With `C[C@H](O)C(=O)N1CCC2(CC1)CN(c1ccc(NC(=O)NCc3cccnc3)cc1)c1ccccc12` [Compound 71, 1-(4-{1′-[(2S)-2-Hydroxypropanoyl]spiro[indole-3,4′-piperidin]-1(2H)-yl}phenyl)-3-(pyridin-3-ylmethyl) urea], the IC50 at 72 h under setting [1] is below 0.1 µM.
With `CC(C)(C)OC(=O)N1CCC(n2cc(CCCCCCNC(=O)NCc3cccnc3)c3ccccc32)CC1` [Compound 123, tert-Butyl 4-[3-(6-{[(pyridin-3-ylmethyl)carbamoyl]amino}hexyl)-1H-indol-1-yl]piperidine-1-carboxylate], the IC50 at 72 h (HCT116 cell cytotoxicity IC50) was at least 0.1 µM.
For the compound `COc1cccc(-c2cn(-c3ccc(NC(=O)NCc4cccnc4)cc3)nc2C(=O)NCCCN2CCCCC2)c1` [Compound 54, 4-(3-Methoxyphenyl)-N-[3-(piperidin-1-yl)propyl]-1-(4-{[(pyridin-3-ylmethyl)carbamoyl]ami-no}phenyl)-1H-pyrazole-3-carboxamide], the IC50 at 72 h under setting [1] was below 0.1 µM.
Same read-out and setting: with `O=C(NCc1cccnc1)Nc1ccc(-n2cc(C3CCN(CC(F)F)CC3)c3ccccc32)cc1` [Compound 40, 1-(4-{3-[1-(2,2-Difluoroethyl)piperidin-4-yl]-1H-indol-1-yl}phenyl)-3-(pyridin-3-ylmethyl)urea] the figure was below 0.1 µM; with `O=C(/C=C/c1ccc(-n2nc(C(=O)N3CCC(N4CCCC4)CC3)c3ccccc32)cc1)NCc1cccnc1` [Compound 168, (2E)-N-(Pyridin-3-ylmethyl)-3-[4-(3-{[4-(pyrrolidin-1-yl)piperidin-1-yl]carbonyl}-1H-indazol-1-yl)phenyl]prop-2-enamide], below 0.1 µM.
In the case of `O=C(/C=C/c1ccc(-n2nc(C(=O)N3CCC(N4CCOCC4)C3)c3ccccc32)cc1)NCc1cccnc1` (stereo not shown) [Compound 170, (2E)-3-[4-(3-{[3-(Morpholin-4-yl)pyrrolidin-1-yl]carbonyl}-1H-indazol-1-yl)phenyl]-N-(pyridin-3-ylmethyl)prop-2-enamide], the IC50 at 72 h under setting [1] was below 0.1 µM.
